Data from article PMC7520498, “Chemical Constituents from the Whole Plant of Cuscuta reflexa” (Natural Products and Bioprospecting, 2020).
≈ marks a conversion by molar mass, not a printed value. One block for each compound: values may come before it.

Experiments:
[1] = system: rabbit platelet aggregation induced by collagen; assay: Rabbit platelet aggregation induced by collagen; assay type: cell-based; conditions: collagen 4 μg/mL; for IC50: Oryctolagus cuniculus, Platelet, read-out: IC50 against rabbit platelet aggregation induced by collagen
Description: (§1) Compounds 1–15 and 1a were also evaluated for their inhibitory activity against rabbit platelet aggregation induced by thrombin (1 U/mL), platelet-activating factor (PAF, 0.4 μg/mL), arachidonate (AA, 0.5 mM), or collagen (4 μg/mL).
(§2) The inhibitory effects of the compounds against rabbit platelet aggregation induced by thrombin (1 U/mL), PAF (0.4 μg/mL), AA (0.5 mM), or collagen (4 μg/mL) were evaluated according to published methods.

[2] = target: T1, porcine pancreatic lipase (PPL) (Sus scrofa, UniProt P00591); assay: In vitro porcine pancreatic lipase inhibition assay (p-NPB substrate); assay type: biochemical
T1 sequence (P00591 1-450): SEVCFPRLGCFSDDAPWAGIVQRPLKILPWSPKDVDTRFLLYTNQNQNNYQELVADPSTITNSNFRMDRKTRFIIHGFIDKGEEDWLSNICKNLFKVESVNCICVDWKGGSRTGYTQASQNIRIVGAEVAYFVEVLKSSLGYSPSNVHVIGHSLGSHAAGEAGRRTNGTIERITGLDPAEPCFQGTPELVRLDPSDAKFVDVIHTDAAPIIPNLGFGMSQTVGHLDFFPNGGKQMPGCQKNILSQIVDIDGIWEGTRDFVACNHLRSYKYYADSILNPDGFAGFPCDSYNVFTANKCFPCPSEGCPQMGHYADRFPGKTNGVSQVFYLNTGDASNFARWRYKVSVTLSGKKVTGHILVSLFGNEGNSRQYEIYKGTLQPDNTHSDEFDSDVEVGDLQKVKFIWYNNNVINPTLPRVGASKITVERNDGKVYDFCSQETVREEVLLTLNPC
Description: For lipase inhibition tests of each compound, porcine pancreatic lipase was used. p-Nitrophenyl butyrate (p-NPB) was used as the substrate. First, 5 μL of the lipase solution (40 U/mL) in Tris–HCl buffer (100 mM Tris–HCl, 5 mM CaCl2; pH 7.0) was added to a 96-well microtiter plate. Each compound in 1 μL of DMSO and 184 μL of Tris–HCl buffer were added and mixed with the enzyme buffer to start the reaction. After incubation at 37 °C for 15 min, 10 μL of the substrate solution (10 mM p-NPB in dimethyl formamide) was added. The enzymatic reaction was carried out for 15 min at 37 °C. The hydrolysis of p-NPB to p-nitrophenol was monitored at 400 nm using a spectrophotometer.

[3] = system: rabbit platelet aggregation induced by arachidonate (AA); assay: Rabbit platelet aggregation induced by arachidonate (AA); assay type: cell-based; conditions: Oryctolagus cuniculus, AA 0.5 mM
Description: as §1, §2

Compound: Cc1cc(OC2OC(COC(=O)C=Cc3ccc(O)cc3)C(O)C(O)C2O)cc(=O)o1 (centres unmarked) [Compound 1, cuscutaroside A]
IC50 [1]: 291 ± 47.9 µg/mL (≈ 671 µM)

Compound: CCC(CCC(C)C1CCC2C3C(OC)C=C4CC(OC5OC(CO)C(O)C(O)C5O)CCC4(C)C3CCC12C)C(C)C (stereo not drawn) [Compound 3, 7β-methoxy-β-sitosterol 3-O-β-glucopyranoside]
IC50 ([2]; porcine pancreatic lipase, p-NPB substrate, read-out: PPL inhibitory activity IC50 (converted)): 111 µM

Compound: 7-oxo-β-sitosterol 3-O-β-D-glucopyranoside [Compound 4]
PPL inhibition ([2]; at a concentration of 100 μg/mL): 12 ± 2%

Compound: CC(=O)Oc1ccc(/C=C/C(=O)OC[C@H]2O[C@@H](Oc3cc(C)oc(=O)c3)[C@H](OC(C)=O)[C@@H](OC(C)=O)[C@@H]2OC(C)=O)cc1 [Compound 1a]
IC50 [1]: 63.8 ± 4.4 µg/mL (≈ 106 µM) | IC50 ([3]; read-out: IC50 against rabbit platelet aggregation induced by AA): 72.6 ± 10.5 µg/mL (≈ 120 µM)

Further lines, with some results ahead:

IC50 against rabbit platelet aggregation induced by collagen [1]: 180.5 ± 6.7 µg/mL
Compound: scrophenoside B [Compound 8]

IC50 [1]: 33.3 ± 1.3 µg/mL (≈ 185 µM)
Compound: CC(=O)Oc1ccccc1C(=O)O [aspirin, reference compound]
inhibition at 40 µg/mL ([3]; at 40 μg/mL): 88.1 ± 1.1%
